The source of these data is patent US6784137B2, “6-aryl-4-aminopicolinates and their use as herbicides” (Dow AgroSciences LLC, priority 2001, dated 2004).

In general, melting point refers to the temperature of the solid-liquid transition.

The subject of data set [1] is Barnyardgrass (Echinochloa crus-galli). Nature of the data set: Postemergence herbicidal activity, greenhouse spray. The following applies: Echinochloa crus-galli, post-emergence, 336 h, Table 1, visual score after 2 weeks, read-out: Post-emergent % control ECHCG; for pest or weed control at 500 ppm: rate 500 ppm. Format: in vivo. In outline: (§1)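 Postemergence application by compressed-air atomizer ([…]) onto plants at the 1-2 true leaf stage; rates set by serial dilution of acetone:DMSO stock into the spray carrier. Plants were kept in a greenhouse with ~15 hr photoperiod and sub-irrigated.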

The test system of data set [2] is Cocklebur (Xanthium strumarium). Described as above. Format: in vivo. The following applies: Xanthium strumarium, post-emergence, 336 h, Table 1, visual score after 2 weeks, read-out: Post-emergent % control XANST; for pest or weed control at 500 ppm: rate 500 ppm, 0 no injury, 100 complete kill. In outline:
as §1

Data set [3] relates to Lambsquarter (Chenopodium album). Described as above. Format: in vivo. The following applies: Chenopodium album, post-emergence, 336 h, Table 1, visual score after 2 weeks, read-out: Post-emergent % control CHEAL; for pest or weed control at 500 ppm: rate 500 ppm. In outline: as §1
Data set [4] has as its system Pigweed (redroot) (Amaranthus retroflexus). The description is as above. Format: in vivo. The note with it: Amaranthus retroflexus, post-emergence, 336 h; Table 3; rate 62.5 (unit inferred); visual score after 2 weeks; read-out: Post-emergent % control AMARE. In outline:
as §1

In data set [5] the test system is Yellow nutsedge (Cyperus esculentus). The description is as above. The note with it: Cyperus, post-emergence, 336 h, Table 1, visual score after 2 weeks, read-out: Post-emergent % control CYPES; for pest or weed control at 500 ppm: rate 500 ppm. Format: in vivo. In outline:
as §1

For data set [6], the system named is Wheat(var. Merica) (Triticum aestivum). In words: Postemergence herbicidal activity, selectivity to wheat. Format: in vivo. The note with it: post-emergence, 336 h, Table 3, rate 62.5 (unit inferred), crop injury, read-out: Post-emergent % control TRZAS. On the procedure: Seeds of the desired test plant species were planted in Grace-Sierra MetroMix® 306 planting mixture, which typically has a pH of 6.0 to 6.8 and an organic matter content of about 30 percent, in plastic pots with a surface area of 64 square centimeters. When required to ensure good germination and healthy plants, a fungicide treatment and/or other chemical or physical treatment was applied. The plants were grown for 7-21 days in a greenhouse with an approximate 15 hr photoperiod which was maintained at about 23-29° C. during the day and 22-28° C. during the night. Nutrients and water were added on a regular basis and supplemental lighting was provided with overhead metal halide 1000-Watt lamps as necessary. The plants were employed for testing when they reached the first or second true leaf stage. A weighed amount, determined by the highest rate to be tested, of each test compound was placed in a 20 mL glass vial and was dissolved in 4 mL of a 97:3 v/v (volume/volume) mixture of acetone and dimethyl sulfoxide (DMSO) to obtain concentrated stock solutions. […] The concentrated stock solutions obtained were diluted with an aqueous mixture containing acetone, water, isopropyl alcohol, DMSO, At plus 411 F crop oil concentrate, and Triton X-155 surfactant in a 48.5:39:10:1.5:1.0:0.02 v/v ratio to obtain spray solutions of known concentration. The solutions containing the highest concentration to be tested were prepared by diluting 2 mL aliquots of the stock solution with 13 mL of the mixture and lower concentrations were prepared by serial dilution of the stock solution. Approximately 1.5 mL aliquots of each solution of known concentration were sprayed evenly onto each of the test plant pots using a DeVilbiss atomizer driven by compressed air pressure of […] (140 to 280 kiloPascals) to obtain thorough coverage of each plant. Control plants were sprayed in the same manner with the aqueous mixture. In this test an application rate of 1 ppm results in the application of approximately 1 g/Ha. The treated plants and control plants were placed in a greenhouse as described above and watered by sub-irrigation to prevent wash-off of the test compounds. After 2 weeks the condition of the test plants as compared with that of the untreated plants was determined visually and scored on a scale of 0 to 100 percent where 0 corresponds to no injury and 100 corresponds to complete kill.

The subject of data set [7] is Crabgrass(large) (Digitaria sanguinalis). Nature of the data set: Preemergence herbicidal activity, soil spray. Format: in vivo. The following applies: Digitaria sanguinalis, pre-emergence, 504 h, Table 5, visual score after 3 weeks, read-out: Pre-emergent % control DIGSA; for pest or weed control at 140 ppm: rate 140 ppm; for pest or weed control at 560 ppm: rate 560 ppm. The gist of the method: (§2)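 Seeds were sown in a 70:30 loam–sand mix (pH about 8.1, about 1.5% organic matter), and test compound from acetone:DMSO 97:3 stocks, diluted in 99.9:0.1 water:Tween 155, was sprayed evenly on the soil surface before emergence. Pots were held in a greenhouse under an approximate 15 hr photoperiod with top-irrigation.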

The test system of data set [8] is Giant Foxtail (Setaria faberi). In words: Preemergence herbicidal activity, soil spray. The following applies: Setaria faberi, pre-emergence, 504 h, Table 5, visual score after 3 weeks, read-out: Pre-emergent % control SETFA; for pest or weed control at 140 ppm: rate 140 ppm; for pest or weed control at 560 ppm: rate 560 ppm. Format: in vivo. The gist of the method: as §2

Data set [9] relates to Lambsquarter (Chenopodium album). In words: Preemergence herbicidal activity, soil spray. Format: in vivo. The following applies: Chenopodium album, pre-emergence, 504 h, Table 5, visual score after 3 weeks, read-out: Pre-emergent % control CHEAL; for pest or weed control at 140 ppm: rate 140 ppm; for pest or weed control at 560 ppm: rate 560 ppm, 100 complete kill or no germination. In outline:
as §2

Data set [10] deals with Pigweed (redroot) (Amaranthus retroflexus). In words: Preemergence herbicidal activity, soil spray. Format: in vivo. The following applies: Amaranthus retroflexus, pre-emergence, 504 h, Table 5, visual score after 3 weeks, read-out: Pre-emergent % control AMARE; for pest or weed control at 140 ppm: rate 140 ppm; for pest or weed control at 560 ppm: rate 560 ppm. The gist of the method: as §2

The structures appear in SMILES notation.

`Cc1ccc(-c2cc(N)c(Cl)c(C(=O)O)n2)cc1C` [Compound 132, 4-amino-3-chloro-6-(3,4-dimethylphenyl)pyridine-2-carboxylic acid] showed a melting point of 192 to 194 °C. For the same compound, the pest or weed control at 500 ppm in data set [1] was determined as 80%. Also, in data set [2], the pest or weed control at 500 ppm stood at 100%. In addition, the pest or weed control at 500 ppm in [3] came to 90%. Further, the pest or weed control at 62.5 µg/mL in data set [4] came to 70%. Moreover, the pest or weed control at 500 ppm in data set [5] came to 0%. Moreover, the pest or weed control at 62.5 µg/mL in data set [6] came to 0%. For the same compound, the pest or weed control at 140 ppm in data set [7] stood at 100%. In addition, the pest or weed control at 140 ppm in data set [8] turned out to be 95%. Also, the pest or weed control at 140 ppm in data set [9] worked out at 100%. Further, the pest or weed control at 140 ppm in data set [10] is 90%.
In the case of `COC(=O)c1nc(-c2ccc(C)cc2)cc(N)c1Cl` [Compound 20, Methyl 4-amino-3-chloro-6-(4-methylphenyl)pyridine-2-carboxylate], the melting point lay within 111 to 113 °C. For the same compound, the pest or weed control at 250 ppm in data set [1] (rate 250 ppm) came out at 70%. The pest or weed control at 250 ppm in data set [2] (rate 250 ppm) was 100%. In addition, the pest or weed control at 250 ppm in data set [3] (rate 250 ppm) is 100%. Also, the pest or weed control at 62.5 µg/mL in [4] is 100%. The pest or weed control at 250 ppm in data set [5] (rate 250 ppm) turned out to be 50%. In addition, in [6], the pest or weed control at 62.5 µg/mL was 10%. In addition, the pest or weed control at 560 ppm in data set [7] is 100%. Further, the pest or weed control at 560 ppm in data set [8] is 100%. In addition, the pest or weed control at 560 ppm in data set [9] came to 100%. For the same compound, the pest or weed control at 560 ppm in data set [10] amounted to 100%.
`COC(=O)c1nc(-c2ccc(Cl)cc2F)cc(NC(C)=O)c1Cl` [Compound 52, Methyl 4-acetamido-3-chloro-6-(4-chloro-2-fluorophenyl)pyridine-2-carboxylate]: the melting point fell in the range of 134 to 135 °C. Besides, in [1], the pest or weed control at 500 ppm came to 90%. The pest or weed control at 500 ppm in data set [2] came to 100%. The pest or weed control at 500 ppm in data set [3] was found to be 100%. In addition, the pest or weed control at 62.5 µg/mL in [4] was 70%. Moreover, the pest or weed control at 500 ppm in data set [5] was found to be 40%. The pest or weed control at 62.5 µg/mL in data set [6] worked out at 10%. In data set [7], the pest or weed control at 140 ppm is 100%. For the same compound, the pest or weed control at 140 ppm in data set [8] is 95%. Further, in data set [9], the pest or weed control at 140 ppm amounted to 100%. In addition, the pest or weed control at 140 ppm in data set [10] worked out at 100%.
In turn, `Nc1cc(-c2ccc3c(c2)OCO3)nc(C(=O)O)c1Cl` [Compound 153, 4-Amino-3-chloro-6-(3,4-methylenedioxyphenyl)pyridine-2-carboxylic acid] returned a melting point of 182 °C. Further, in data set [1], the pest or weed control at 500 ppm stood at 95%. In [2], the pest or weed control at 500 ppm was 100%. Further, the pest or weed control at 500 ppm in data set [3] stood at 98%. Moreover, the pest or weed control at 62.5 µg/mL in [4] was 100%. The pest or weed control at 500 ppm in data set [5] was 70%. Also, in data set [6], the pest or weed control at 62.5 µg/mL was 10%. Further, the pest or weed control at 560 ppm in data set [7] is 100%. Moreover, the pest or weed control at 560 ppm in data set [8] came out at 100%. Also, the pest or weed control at 560 ppm in data set [9] turned out to be 100%. Further, the pest or weed control at 560 ppm in [10] is 100%.
Consider `COC(=O)c1nc(-c2ccc3c(c2)OCO3)cc(N)c1Cl` [Compound 29, Methyl 4-amino-3-chloro-6-(3,4-methylenedioxyphenyl)pyridine-2-carboxylate], for which the melting point was 184 °C. Moreover, the pest or weed control at 500 ppm in data set [1] is 95%. Besides, the pest or weed control at 500 ppm in [2] was 100%. Also, the pest or weed control at 500 ppm in data set [3] was 100%. The pest or weed control at 62.5 µg/mL in data set [4] stood at 90%. Besides, the pest or weed control at 500 ppm in [5] amounted to 80%. Further, in [6], the pest or weed control at 62.5 µg/mL is 10%. Further, the pest or weed control at 560 ppm in data set [7] worked out at 100%. For the same compound, the pest or weed control at 560 ppm in [8] was 90%. For the same compound, in data set [9], the pest or weed control at 560 ppm is 100%. Also, the pest or weed control at 560 ppm in [10] turned out to be 95%.
